pEC50, pIC50: −log10 of the molar value.
Legend:
[1] = target: T1, IKZF1 (Homo sapiens, UniProt Q13422+Q96SW2); experiment: Flow cytometry for measuring degradation, HEK293T GFP-POI reporter cells (IKZF1); assay type: cell-based; details: 24 h, HEK293T GFP reporter
T1 construct: expressed in transfected cells; host or cells: HEK293T (lentiviral transduction, puromycin selection, FACS sorting)

[2] = target: T2, IKZF2 (Homo sapiens, UniProt Q96SW2+Q9UKS7); experiment: Flow cytometry for measuring degradation, HEK293T GFP-POI reporter cells (IKZF2); assay type: cell-based
T2 construct: expressed in transfected cells; host or cells: HEK293T (lentiviral transduction, puromycin selection, FACS sorting)

[3] = target: T3, CK1α (Homo sapiens, UniProt P48729+Q96SW2); experiment: Flow cytometry for measuring degradation, HEK293T GFP-POI reporter cells (CK1α); assay type: cell-based
T3 construct: expressed in transfected cells; host or cells: HEK293T (lentiviral transduction, puromycin selection, FACS sorting)

[4] = In vitro solubility in DMSO; assay type: physicochemical; details: DMSO
[5] = test system: endometrioid ovarian cancer cell line A2780; experiment: 5-day MTT assay in A2780 cells; assay type: cell-based; details: Homo sapiens, 120 h; A2780, 5-day MTT assay
Procedure: (§1) Viability Assay: 10,000 cells (e.g., MOLM-13 cells, MLL-AF9 leukemic cells or normal BM cells) were plated onto flat-bottom 96-well plates in media with increasing concentration of compound up to […]. […] For measuring viability, Cell-Titer Glo kit (Promega) or MTT kit was used following manufacturer's instructions. For Cell-Titer Glo assay, cells were cooled to room temperature for 20-30 min, 100 μL of the cultured cells were transferred to opaque-white bottom 96-well plates and mixed with 100 μL of Cell-Titer Glo reagent. The mixture was incubated for 15 min at room temperature and read using a Synergy H1 Hybrid reader (BioTek) for luminescence. Data was normalized as percentage viability and graphed by non-linear regression curves in Graph Pad PRISM 7.0.

[6] = test system: DLBCL cell line OCI-LY3; experiment: 5-day MTT assay in OCI-LY3 cells; assay type: cell-based; details: Homo sapiens, 120 h; OCI-LY3, 5-day MTT assay
Procedure: as §1

[7] = test system: small cell lung cancer cell line NCI-H1048; experiment: 5-day MTT assay in NCI-H1048 cells; assay type: cell-based; details: NCI-H1048, 5-day MTT assay
Procedure: as §1

[8] = test system: MOLM-13 cells; experiment: Cell viability assay in MOLM-13 cells; assay type: cell-based; details: Homo sapiens, read-out: IC50 (cytotoxicity)
Procedure: Viability Assay: 10,000 cells (e.g., MOLM-13 cells, MLL-AF9 leukemic cells or normal BM cells) were plated onto flat-bottom 96-well plates in media with increasing concentration of compound up to 100 µM. Cells were cultured for 72 h at 37° C. in a 5% CO2 incubator. For measuring viability, Cell-Titer Glo kit (Promega) or MTT kit was used following manufacturer's instructions. For Cell-Titer Glo assay, cells were cooled to room temperature for 20-30 min, 100 μL of the cultured cells were transferred to opaque-white bottom 96-well plates and mixed with 100 μL of Cell-Titer Glo reagent. The mixture was incubated for 15 min at room temperature and read using a Synergy H1 Hybrid reader (BioTek) for luminescence. Data was normalized as percentage viability and graphed by non-linear regression curves in Graph Pad PRISM 7.0.

[9] = In vitro metabolic stability; assay type: in vitro ADME; details: read-out: in vitro metabolic stability t1/2
[10] = Pharmacokinetics, plasma concentration in mice; details: male, CD1, mouse, ip, single intraperitoneal injection at 5 mg/kg, read-out: in vivo half-life t1/2 (converted)
Procedure: (§2) In vivo drug administration in MLL-AF9 and PDX mouse model: A total of 250,000 of MLL-AF9 BM secondary mouse leukemia cells were injected retroorbitally into 6-8 weeks-old female C57BL/6 recipient mice that has been sublethally irradiated at 450 cGy. For AML PDX model, 1 million PDX cells were transplanted by intravenous injection into 8-10 weeks old female NSG mice that had been sublethally irradiated at 200 rads 24 hr before transplant. […] DEG-77 was treated at 223 mg/kg in DMSO in 50 ul volume. Mice weight was monitored every day to check for toxicity. Mice were sacrificed when moribund, and organ weights were measured for disease burden. Spleen and bone marrow cells were isolated and processed for western blot analysis. All animal studies were performed on animal protocols approved by the Institutional Animal Care and Use Committee (IACUC) at Memorial Sloan Kettering Cancer Center. […] Plasma was extracted from each mouse after indicated time and DEG-35 in plasma was measured using HPLC. For examining the toxicity of DEG-77 in the hematopoietic system of Crbn^1391V mice, four rounds of DMSO or 223 mg/kg DEG-77 was treated in 8-12 weeks old female Crbn^1391V mice. Mice were injected once a week and were sacrificed 4 weeks later for blood analysis using the Element HT5 Hematology Analyzer (HESKA) and analysis of the hematopoietic cells by flow cytometry.

[11] = test system: MLL-AF9 Crbn^1391V cells; experiment: Survival of BL6 mice transplanted with MLL-AF9 Crbn^1391V cells; assay type: in vivo; details: 223 mg/kg once per week
Procedure: Generation of MLL-AF9 Crbn^1391V leukemic cells: Lin-Sca+ Kit+ (LSK) cells were isolated from bone marrow cells of wildtype or Crbn^1391V mice that were 6 to 8 weeks old. Briefly, bone marrow cells were enriched for c-Kit positive cells by incubating with CD117/c-Kit microbeads and then processed through the autoMACS Pro Separator (Miltenyi Biotec), following the manufacturer's instructions. CKit enriched cells were stained with Lineage antibody cocktail (CD3, CD4, CD8, Gr1, B220, CD19, TER119 conjugated with PeCy5), Scal-Pac Blue, CD34-FITC, SLAM-APC, CD48-PE, and c-KIT-APC-Cy7. After staining, cells were sorted for LSK cells using a BD FACS Aria II instrument. Sorted LSK cells were incubated overnight in Stemspan SFEM medium (Stem Cell Technologies) with 10 ng/ml IL-3, 10 ng/ml IL-6, 50 ng/ml SCF. 10 ng/ml thrombopoietin (TPO), and 20 ng/ml FLT-3 ligand. […]
In vivo drug administration in MLL-AF9 and PDX mouse model: A total of 250,000 of MLL-AF9 BM secondary mouse leukemia cells were injected retroorbitally into 6-8 weeks-old female C57BL/6 recipient mice that has been sublethally irradiated at 450 cGy. […] Mice weight was monitored every day to check for toxicity. Mice were sacrificed when moribund, and organ weights were measured for disease burden. […] Plasma was extracted from each mouse after indicated time and DEG-35 in plasma was measured using HPLC. […]

[12] = test system: AML PDX cells; experiment: AML PDX model in NSG mice; assay type: in vivo
Procedure: as §2

[13] = target: T4, GSPT1 (Homo sapiens, UniProt P15170+Q96SW2); experiment: Western blot of NCI-H1048 cells for GSPT1; assay type: cell-based; details: 24 h
[14] = Toxicity in hematopoietic system of Crbn^1391V mice; assay type: in vivo; details: four rounds, 223 mg/kg weekly
Procedure: as §2

[15] = test system: MOLM-13 cells; experiment: Survival of NSG mice transplanted with MOLM-13 cells; assay type: in vivo; details: MOLM-13 transplanted mice, 223 mg/kg weekly
[16] = test system: MLL-AF9 Crbn^1391V cells; experiment: Survival of Crbn^1391V mice transplanted with MLL-AF9 Crbn^1391V cells; assay type: in vivo; details: 223 mg/kg weekly
[17] = target: T4, GSPT1; experiment: Flow cytometry for measuring degradation, HEK293T GFP-POI reporter cells (GSPT1); assay type: cell-based; parameters: expressed in transfected cells; host or cells: HEK293T; details: 24 h, HEK293T GFP reporter
[18] = 100 nM, 24 h, HEK293T GFP reporter
[19] = 1 μM, 24 h, HEK293T GFP reporter

T3 sequence (P48729 whole entry): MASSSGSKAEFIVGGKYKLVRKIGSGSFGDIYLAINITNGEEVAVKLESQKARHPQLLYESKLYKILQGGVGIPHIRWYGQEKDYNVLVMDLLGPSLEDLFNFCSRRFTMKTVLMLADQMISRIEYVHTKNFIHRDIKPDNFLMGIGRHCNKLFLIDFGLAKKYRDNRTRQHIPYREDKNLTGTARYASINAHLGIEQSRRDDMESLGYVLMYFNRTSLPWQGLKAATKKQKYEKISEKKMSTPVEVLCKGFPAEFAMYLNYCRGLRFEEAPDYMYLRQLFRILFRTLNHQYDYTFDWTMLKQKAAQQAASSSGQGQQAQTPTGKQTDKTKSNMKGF
T3 sequence (Q96SW2 whole entry): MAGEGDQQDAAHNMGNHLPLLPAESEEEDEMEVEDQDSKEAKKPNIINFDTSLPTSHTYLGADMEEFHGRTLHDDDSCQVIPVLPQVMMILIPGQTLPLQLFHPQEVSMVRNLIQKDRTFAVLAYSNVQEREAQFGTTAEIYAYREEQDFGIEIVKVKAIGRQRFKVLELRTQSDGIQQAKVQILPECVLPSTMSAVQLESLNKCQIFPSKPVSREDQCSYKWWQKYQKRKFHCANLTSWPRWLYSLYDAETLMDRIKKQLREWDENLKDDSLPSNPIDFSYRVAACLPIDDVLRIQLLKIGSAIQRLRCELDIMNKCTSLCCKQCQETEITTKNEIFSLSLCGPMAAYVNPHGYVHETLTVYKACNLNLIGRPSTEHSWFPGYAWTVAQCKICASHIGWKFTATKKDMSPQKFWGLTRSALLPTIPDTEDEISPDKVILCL
T3 sequence (Q16531 whole entry partner): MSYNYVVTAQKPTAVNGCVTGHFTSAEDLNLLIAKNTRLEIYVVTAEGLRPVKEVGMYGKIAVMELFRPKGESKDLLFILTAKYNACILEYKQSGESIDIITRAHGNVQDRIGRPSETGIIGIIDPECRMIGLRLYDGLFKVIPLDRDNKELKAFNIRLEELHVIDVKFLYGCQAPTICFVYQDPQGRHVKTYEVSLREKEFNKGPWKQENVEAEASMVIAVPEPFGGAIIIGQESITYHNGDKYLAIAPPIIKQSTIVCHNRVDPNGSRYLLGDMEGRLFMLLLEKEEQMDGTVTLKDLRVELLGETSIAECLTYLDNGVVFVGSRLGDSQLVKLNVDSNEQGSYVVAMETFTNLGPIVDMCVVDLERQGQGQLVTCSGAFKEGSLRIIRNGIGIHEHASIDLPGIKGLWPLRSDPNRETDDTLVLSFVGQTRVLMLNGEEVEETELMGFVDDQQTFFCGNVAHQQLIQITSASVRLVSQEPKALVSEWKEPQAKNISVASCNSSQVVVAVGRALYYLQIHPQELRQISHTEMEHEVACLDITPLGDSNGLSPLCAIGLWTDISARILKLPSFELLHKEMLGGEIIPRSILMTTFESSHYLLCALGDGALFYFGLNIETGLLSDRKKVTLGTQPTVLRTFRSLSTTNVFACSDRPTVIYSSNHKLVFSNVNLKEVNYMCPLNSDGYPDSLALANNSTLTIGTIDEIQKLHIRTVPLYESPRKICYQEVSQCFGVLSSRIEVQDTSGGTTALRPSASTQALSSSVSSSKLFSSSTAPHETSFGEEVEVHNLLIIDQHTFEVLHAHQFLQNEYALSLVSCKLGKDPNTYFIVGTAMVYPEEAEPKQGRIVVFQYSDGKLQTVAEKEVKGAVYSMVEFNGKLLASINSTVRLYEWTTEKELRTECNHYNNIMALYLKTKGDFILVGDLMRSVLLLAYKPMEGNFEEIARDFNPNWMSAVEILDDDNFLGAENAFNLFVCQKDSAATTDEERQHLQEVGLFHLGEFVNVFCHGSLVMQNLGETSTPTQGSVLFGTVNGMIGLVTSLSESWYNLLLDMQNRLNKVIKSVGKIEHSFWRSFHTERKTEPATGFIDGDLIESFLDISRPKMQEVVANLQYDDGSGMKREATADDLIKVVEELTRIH
T4 sequence (P15170 whole entry): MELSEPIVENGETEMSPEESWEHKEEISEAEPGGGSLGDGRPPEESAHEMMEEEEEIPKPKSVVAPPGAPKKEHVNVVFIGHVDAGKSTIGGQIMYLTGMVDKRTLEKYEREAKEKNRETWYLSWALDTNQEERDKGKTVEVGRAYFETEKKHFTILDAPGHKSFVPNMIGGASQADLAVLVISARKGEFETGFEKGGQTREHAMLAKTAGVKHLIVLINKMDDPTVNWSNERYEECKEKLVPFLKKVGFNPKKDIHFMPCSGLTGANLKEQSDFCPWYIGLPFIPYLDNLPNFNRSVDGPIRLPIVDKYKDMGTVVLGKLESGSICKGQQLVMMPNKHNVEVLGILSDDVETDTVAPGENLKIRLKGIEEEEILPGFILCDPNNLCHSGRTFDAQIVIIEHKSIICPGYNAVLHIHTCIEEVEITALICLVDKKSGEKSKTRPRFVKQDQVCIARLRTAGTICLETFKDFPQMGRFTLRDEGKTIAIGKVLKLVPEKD
T4 sequence (Q96SW2 whole entry): as the sequence (Q96SW2 whole entry) above
T4 sequence (Q16531 whole entry partner): as the sequence (Q16531 whole entry partner) above
T2 sequence (Q9UKS7 whole entry): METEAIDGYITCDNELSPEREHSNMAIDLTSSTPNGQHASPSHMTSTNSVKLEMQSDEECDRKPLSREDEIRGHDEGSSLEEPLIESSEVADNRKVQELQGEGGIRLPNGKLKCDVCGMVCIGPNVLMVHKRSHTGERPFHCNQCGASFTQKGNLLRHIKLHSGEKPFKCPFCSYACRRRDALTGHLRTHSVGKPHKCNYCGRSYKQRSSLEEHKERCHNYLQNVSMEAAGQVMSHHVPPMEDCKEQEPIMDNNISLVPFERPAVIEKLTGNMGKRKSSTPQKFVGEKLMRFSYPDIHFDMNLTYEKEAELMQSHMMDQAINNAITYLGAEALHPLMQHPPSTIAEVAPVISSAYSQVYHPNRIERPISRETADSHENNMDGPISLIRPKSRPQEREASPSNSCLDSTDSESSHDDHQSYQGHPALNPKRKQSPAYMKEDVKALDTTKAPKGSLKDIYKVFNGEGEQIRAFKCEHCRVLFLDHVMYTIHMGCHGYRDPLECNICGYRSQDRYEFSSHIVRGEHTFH
T2 sequence (Q96SW2 whole entry): as the sequence (Q96SW2 whole entry) above
T2 sequence (Q16531 whole entry partner): as the sequence (Q16531 whole entry partner) above
T1 sequence (Q13422 whole entry): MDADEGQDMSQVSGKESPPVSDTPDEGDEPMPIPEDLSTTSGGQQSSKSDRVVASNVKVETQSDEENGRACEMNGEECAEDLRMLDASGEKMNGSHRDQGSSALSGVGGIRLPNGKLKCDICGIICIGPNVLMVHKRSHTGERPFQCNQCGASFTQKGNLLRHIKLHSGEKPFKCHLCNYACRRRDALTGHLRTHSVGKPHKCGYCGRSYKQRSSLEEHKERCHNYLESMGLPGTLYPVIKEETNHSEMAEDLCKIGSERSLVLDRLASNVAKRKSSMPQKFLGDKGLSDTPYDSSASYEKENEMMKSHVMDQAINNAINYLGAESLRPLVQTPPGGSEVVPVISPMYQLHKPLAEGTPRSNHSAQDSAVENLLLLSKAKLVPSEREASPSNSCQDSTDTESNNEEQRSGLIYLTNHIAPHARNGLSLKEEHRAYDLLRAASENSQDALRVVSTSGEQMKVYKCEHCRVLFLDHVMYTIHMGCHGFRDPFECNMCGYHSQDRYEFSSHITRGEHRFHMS
T1 sequence (Q96SW2 whole entry): as the sequence (Q96SW2 whole entry) above
T1 sequence (Q16531 whole entry partner): as the sequence (Q16531 whole entry partner) above

Compound: COc1cccc2c1OCC(C(=O)Nc1ccc3c(c1)CN(C1CCC(=O)NC1=O)C3=O)=C2 (centres unmarked) [DEG-77, N-(2-(2,6-dioxopiperidin-3-yl)-1-oxoisoindolin-5-yl)-8-methoxy-2H-chromene-3-carboxamide]
- IKZF1% degradation at 100 nM ([1]; 100 nM): 10.7 ± 1.1%
- IKZF1% degradation at 1 μM ([1]; 1 μM): 29 ± 0.9%
- DC50 [2]: 15.3 nM
- IKZF2% degradation at 100 nM [2, 18]: 82.3 ± 0.6%
- IKZF2% degradation at 1 μM [2, 19]: 94.4 ± 0.1%
- CK1α % degradation at 100 nM [3, 18]: 68.6 ± 1%
- CK1α % degradation at 1 μM [3, 19]: 72.7 ± 0.8%
- DC50 ([3]; read-out: DC50 CK1α): 10 nM
- increase in solubility in DMSO compared to DEG-35 [4]: 10 fold
- pEC50 [5]: 7.57
- pEC50 [6]: 7.85
- sensitivity of NCI-H1048 cells (in words) [7]: selectively sensitive to DEG-35 and not DEG-77
- pIC50 [8]: 8.40
- half-life [9]: > 6 h
- half-life [10]: 8 h
- total body weight (in words) [11]: without total body weight loss
- survival ([11]; vehicle treated mice 35 days): 66 days
- survival (in words) ([12]; PDX AML model, weekly from 4 weeks post-transplant, 223 mg/kg): significant extension of survival
- engraftment of PDX cells in the bone marrow ([12]; after a single injection, >85% prior to treatment): around 40%
- GSPT1 degradation by Western blot (in words) [13]: did not affect protein levels
- WBC counts (in words) [14]: modest reduction of WBC counts
- platelets and RBC counts (in words) [14]: remained unchanged
- survival (in words) [15]: increased survival
- survival (in words) [16]: significant increase in survival
- GSPT1% degradation at 100 nM ([17]; 100 nM): 3.7 ± 1.3%
- GSPT1% degradation at 1 μM ([17]; 1 μM): 2.6 ± 1%
